Here are results for 18 molecules from patent publication US20260078119A1, “DEGRADER COMPOUNDS AND USES THEREOF” (Bristol-Myers Squibb Company, priority 2024, published 2026).

The target of the experiment is T1, FAK (Homo sapiens, UniProt Q05397).
T1 construct: homozygous knock-in of a HiBiT tag (Promega Corporation, Madison, WI) to the C-terminus of the FAK gene in its natural genomic locus; endogenous in cells; host or cells: JHH-4-FAK-HiBiT clone d01 (CRISPR-Cas9 knock-in at the endogenous locus)
T1 sequence (Q05397 whole entry): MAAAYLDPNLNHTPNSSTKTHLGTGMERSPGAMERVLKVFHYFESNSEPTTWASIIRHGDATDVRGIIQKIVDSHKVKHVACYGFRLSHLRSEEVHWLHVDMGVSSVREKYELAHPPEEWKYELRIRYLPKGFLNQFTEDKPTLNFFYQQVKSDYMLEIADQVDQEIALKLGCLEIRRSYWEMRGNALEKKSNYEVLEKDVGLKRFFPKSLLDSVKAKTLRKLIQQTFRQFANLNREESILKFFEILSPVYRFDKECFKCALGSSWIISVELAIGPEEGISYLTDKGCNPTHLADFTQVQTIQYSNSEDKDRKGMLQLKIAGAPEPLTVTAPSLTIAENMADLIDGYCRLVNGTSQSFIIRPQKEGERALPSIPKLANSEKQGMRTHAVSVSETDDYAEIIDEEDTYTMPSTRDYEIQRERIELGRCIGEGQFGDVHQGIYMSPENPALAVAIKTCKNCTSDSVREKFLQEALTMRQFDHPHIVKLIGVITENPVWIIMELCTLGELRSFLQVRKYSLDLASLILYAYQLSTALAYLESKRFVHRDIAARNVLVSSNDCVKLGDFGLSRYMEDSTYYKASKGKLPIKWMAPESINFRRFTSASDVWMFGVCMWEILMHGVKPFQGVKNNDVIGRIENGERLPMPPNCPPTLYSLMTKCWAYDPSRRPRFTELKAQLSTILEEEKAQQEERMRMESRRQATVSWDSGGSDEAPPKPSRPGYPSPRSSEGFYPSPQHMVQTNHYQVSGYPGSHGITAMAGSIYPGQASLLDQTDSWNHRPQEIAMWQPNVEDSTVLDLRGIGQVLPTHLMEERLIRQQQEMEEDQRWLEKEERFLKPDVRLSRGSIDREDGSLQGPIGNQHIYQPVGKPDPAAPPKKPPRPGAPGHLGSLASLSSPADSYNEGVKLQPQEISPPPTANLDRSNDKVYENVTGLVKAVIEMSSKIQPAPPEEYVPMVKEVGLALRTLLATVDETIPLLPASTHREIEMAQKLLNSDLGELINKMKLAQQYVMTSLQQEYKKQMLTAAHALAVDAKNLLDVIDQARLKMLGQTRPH
Briefly: FAK-HiBiT Degradation Assay. It counts as cell-based. Conditions: for DC50: read-out: FAK HiBiT EC50; for FAK HiBiT Ymin: lower limit of the four parameter fit (value A), Ymax derived using DMSO control, JHH-4-FAK-HiBiT cells, two hours. The source says: To generate JHH-4-FAK-HiBiT cells for the FAK degradation assay, JHH-4 cells (Japanese Collection of Research Biosources Cell Bank, Japan) were transfected with ribonucleoprotein reagents to introduce, by CRISPR-Cas9 editing, the homozygous knock-in of a HiBiT tag (Promega Corporation, Madison, WI) to the C-terminus of the FAK gene in its natural genomic locus. Clonal cell populations were established by expanding single cells after CRISPR-Cas9 editing, with a clonal cell line named JHH-4-FAK-HiBiT clone d01 confirmed by next generation DNA sequencing to contain the expected HiBiT edited FAK gene and was selected for FAK degradation screening. Cells were selected and maintained in complete DMEM media (DMEM, 10% Heat Inactivated FBS, and Non-Essential Amino Acids at 37° C. and 5% CO2). Cells were passaged every 3-4 days by reseeding 0.5×10^6 cells in a T75 flask.
Cells were dispensed into 384-well white plates (Corning #3570, NY) that were pre-spotted with compounds using an acoustic dispenser (Echo acoustic transfer system, Beckman Coulter Life Sciences, Carlsbad, CA) as a 10-point dose response curve with a 3-fold dilution starting at 1 μM and including a DMSO control. Twenty-five microliters of media containing 2000 JHH-4-FAK-HiBiT Clone d01 cells was dispensed per well. Assay plates were incubated at 37° C. with 5% CO2 for two hours. After incubation, 25 μL of Nano-Glo HiBiT Lytic Reagent Working Solution (Promega Corporation, Madison, WI) was added to each well and incubated at room temperature for 10 minutes protected from light. After 10 minutes, luminescence was read on a PHERAstar luminometer (BMG Labtech, Cary, NC).
To determine the half-maximal effective concentration (EC50) values for FAK-HiBIT degradation, a four parameter logistic model was used: (Sigmoidal Dose-Response Model)(FIT=(A+((B−A)/1+((C/x)^D)))) where C is the inflection point (EC50), D is the Hill slope, and A and B are the low and high limits of the fit respectively). The lower limit of the fit (value A) is referred to as Ymin. The maximum limit constraint, Ymax, was derived using DMSO control. The curves were processed and evaluated using Dotmatics Atlas (Insightful Science, LLC, Boston, MA).

The mark [1] stands for this setting: JHH-4-FAK-HiBiT clone d01 cells, two hours incubation, 10-point dose response, 3-fold dilution starting at 1 μM, Nano-Glo HiBiT luminescence.

SMILES strings stand for the structures.

Regarding `CC(C)Nc1cc(-c2ccc(C#N)cc2F)c2cnn(Cc3ccc4c(c3)CN(C3CCC(=O)NC3=O)C4=O)c2n1` (stereo not drawn) [Example 92, 4-(1-{[2-(2,6-dioxopiperidin-3-yl)-1-oxo-2,3-dihydro-1H-isoindol-5-yl]methyl}-6-[(propan-2-yl)amino]-1H-pyrazolo[3,4-b]pyridin-4-yl)-3-fluorobenzonitrile], the “FAK HiBiT Ymin” value amounted to 26.48. Further, the DC50 under setting [1] is 14.1 nM.

A word on the EC50: it is the midpoint of the concentration-response curve. A higher EC50 goes with lower potency in that assay. In the case of `CN(C)c1cc(-c2ncc(C#N)cc2Cl)c2ccn(Cc3ccc4c(c3)CN(C3CCC(=O)NC3=O)C4=O)c2n1` (stereo not drawn) [Example 13, 5-chloro-6-(6-(dimethylamino)-1-((2-(2,6-dioxopiperidin-3-yl)-1-oxoisoindolin-5-yl)methyl)-1H-pyrrolo[2,3-b]pyridin-4-yl)nicotinonitrile], the “FAK HiBiT Ymin” value was found to be 4.03. This molecule also returned a concentration for a half-maximal effect (EC50) under setting [1] of 7.86 nM.

For the molecule `CN(C)c1cc(-c2ccc(C#N)cc2Cl)c2ncn(Cc3ccc4c(c3)CN(C3CCC(=O)NC3=O)C4=O)c2n1` (stereo not drawn) [Example 18], the “FAK HiBiT Ymin” value worked out at 4.01. Besides, under setting [1], the DC50 was found to be 8.37 nM.

For the molecule `CC(C)(O)c1ccc(Cl)c(-c2cc(N3CCC3)nc3c2cnn3Cc2ccc3c(c2)CN(C2CCC(=O)NC2=O)C3=O)c1` (stereo not drawn) [Example 124, 3-(5-{[6-(azetidin-1-yl)-4-[2-chloro-5-(2-hydroxypropan-2-yl)phenyl]-1H-pyrazolo[3,4-b]pyridin-1-yl]methyl}-1-oxo-2,3-dihydro-1H-isoindol-2-yl)piperidine-2,6-dione], the “FAK HiBiT Ymin” value was 43.76. Besides, under setting [1], the DC50 was 124 nM.

With `N#Cc1ccc(-c2cc(N3CC(F)C3)nc3c2cnn3Cc2ccc3c(c2)CN(C2CCC(=O)NC2=O)C3=O)c(F)c1` (stereo not drawn) [Example 71, 4-(1-{[2-(2,6-dioxopiperidin-3-yl)-1-oxo-2,3-dihydro-1H-isoindol-5-yl]methyl}-6-(3-fluoroazetidin-1-yl)-1H-pyrazolo[3,4-b]pyridin-4-yl)-3-fluorobenzonitrile], the “FAK HiBiT Ymin” value is reported as 11.11. In addition, under setting [1], the DC50 amounted to 5.67 nM.

On to `O=C1CCC(N2Cc3cc(Cn4ncc5c(-c6ncc(C7CC7)cc6F)cc(N6CC(F)C6)nc54)ccc3C2=O)C(=O)N1` (stereo not drawn) [Example 86, 3-(5-{[4-(5-cyclopropyl-3-fluoropyridin-2-yl)-6-(3-fluoroazetidin-1-yl)-1H-pyrazolo[3,4-b]pyridin-1-yl]methyl}-1-oxo-2,3-dihydro-1H-isoindol-2-yl)piperidine-2,6-dione], for which the “FAK HiBiT Ymin” value worked out at 35.59. In addition, the DC50 under setting [1] amounted to 12.5 nM.

As to `N#Cc1ccc(-c2cc(N3CCC3)nc3c2cnn3Cc2cnc3c(c2)CN(C2CCC(=O)NC2=O)C3=O)c(Cl)c1` (stereo not drawn) [Example 118, 4-[6-(azetidin-1-yl)-1-{[6-(2,6-dioxopiperidin-3-yl)-7-oxo-5H,6H,7H-pyrrolo[3,4-b]pyridin-3-yl]methyl}-1H-pyrazolo[3,4-b]pyridin-4-yl]-3-chlorobenzonitrile], the “FAK HiBiT Ymin” value was found to be 12.49. Under setting [1], the DC50 came out at 79.6 nM.

Turning to `O=C1CC[C@H](N2Cc3cc(Cn4ncc5c(-c6ncc(Cl)cc6F)cc(N6CC[C@H](O)C6)nc54)ccc3C2=O)C(=O)N1` [Example 141, (3S)-3-(5-{[4-(5-chloro-3-fluoropyridin-2-yl)-6-[(3S)-3-hydroxypyrrolidin-1-yl]-1H-pyrazolo[3,4-b]pyridin-1-yl]methyl}-1-oxo-2,3-dihydro-1H-isoindol-2-yl)piperidine-2,6-dione], the “FAK HiBiT Ymin” value was found to be 53. Besides, the DC50 under setting [1] was 9 nM.

For `CN(C)c1nc(-c2ccc(C#N)cc2Cl)c2ccn(Cc3ccc4c(c3)CN(C3CCC(=O)NC3=O)C4=O)c2n1` (stereo not drawn) [Example 27, 3-chloro-4-(2-(dimethylamino)-7-((2-(2,6-dioxopiperidin-3-yl)-1-oxoisoindolin-5-yl)methyl)-7H-pyrrolo[2,3-d]pyrimidin-4-yl)benzonitrile], the “FAK HiBiT Ymin” value was determined as 2.64. Further, the DC50 under setting [1] turned out to be 8.68 nM.

Take `CC(C)Nc1cc(-c2ccc(C#N)cc2Cl)c2cnn(Cc3ccc4c(c3)CN(C3CCC(=O)NC3=O)C4=O)c2n1` (stereo not drawn) [Example 68, 3-chloro-4-(1-{[2-(2,6-dioxopiperidin-3-yl)-1-oxo-2,3-dihydro-1H-isoindol-5-yl]methyl}-6-[(propan-2-yl)amino]-1H-pyrazolo[3,4-b]pyridin-4-yl)benzonitrile]: the “FAK HiBiT Ymin” value was 15.10. Under setting [1], the DC50 worked out at 5.19 nM.

Consider `CC(C)Nc1cc(-c2ccncc2Cl)c2cnn(Cc3ccc4c(c3)CN(C3CCC(=O)NC3=O)C4=O)c2n1` (stereo not drawn) [Example 116, 3-(5-{[4-(3-chloropyridin-4-yl)-6-[(propan-2-yl)amino]-1H-pyrazolo[3,4-b]pyridin-1-yl]methyl}-1-oxo-2,3-dihydro-1H-isoindol-2-yl)piperidine-2,6-dione], for which the “FAK HiBiT Ymin” value was found to be 34.23. Moreover, the DC50 under setting [1] worked out at 67.2 nM.

For `Cc1nn(Cc2ccc3c(c2)CN(C2CCC(=O)NC2=O)C3=O)c2nc(N3CCC3)cc(-c3ccc(C#N)cc3Cl)c12` (stereo not drawn) [Example 60, 4-[6-(azetidin-1-yl)-1-{[2-(2,6-dioxopiperidin-3-yl)-1-oxo-2,3-dihydro-1H-isoindol-5-yl]methyl}-3-methyl-1H-pyrazolo[3,4-b]pyridin-4-yl]-3-chlorobenzonitrile], the “FAK HiBiT Ymin” value worked out at 9.10. Besides, the DC50 under setting [1] was found to be 3.57 nM.

As to `CC(C)Nc1cc(-c2ncc(C#N)cc2F)c2cnn(Cc3ccc4c(c3)CN(C3CCC(=O)NC3=O)C4=O)c2n1` (stereo not drawn) [Example 137, 6-(1-{[2-(2,6-dioxopiperidin-3-yl)-1-oxo-2,3-dihydro-1H-isoindol-5-yl]methyl}-6-[(propan-2-yl)amino]-1H-pyrazolo[3,4-b]pyridin-4-yl)-5-fluoropyridine-3-carbonitrile], the “FAK HiBiT Ymin” value is on record as 81.91. Under setting [1], the DC50 was at least 1000 nM.

As for `N#Cc1ccc(-c2cc(N3CCC3)nc3c2c(Cl)nn3Cc2ccc3c(c2)CN(C2CCC(=O)NC2=O)C3=O)c(Cl)c1` (stereo not drawn) [Example 70, 4-[6-(azetidin-1-yl)-3-chloro-1-{[2-(2,6-dioxopiperidin-3-yl)-1-oxo-2,3-dihydro-1H-isoindol-5-yl]methyl}-1H-pyrazolo[3,4-b]pyridin-4-yl]-3-chlorobenzonitrile], the “FAK HiBiT Ymin” value amounted to 13.38. For the same molecule, the DC50 under setting [1] stood at 5.6 nM.

On to `O=C1CCC(N2Cc3cc(Cn4ncc5c(-c6ncccc6Cl)cc(N6CCC6)nc54)ccc3C2=O)C(=O)N1` (stereo not drawn) [Example 88, 3-(5-{[6-(azetidin-1-yl)-4-(3-chloropyridin-2-yl)-1H-pyrazolo[3,4-b]pyridin-1-yl]methyl}-1-oxo-2,3-dihydro-1H-isoindol-2-yl)piperidine-2,6-dione], for which the “FAK HiBiT Ymin” value is 10.98. For the same molecule, the DC50 under setting [1] stood at 13 nM.

For the molecule `Cc1cccnc1-c1cc(N2CC(F)C2)nc2c1cnn2Cc1ccc2c(c1)CN(C1CCC(=O)NC1=O)C2=O` (stereo not drawn) [Example 112, 3-(5-{[6-(3-fluoroazetidin-1-yl)-4-(3-methylpyridin-2-yl)-1H-pyrazolo[3,4-b]pyridin-1-yl]methyl}-1-oxo-2,3-dihydro-1H-isoindol-2-yl)piperidine-2,6-dione], the “FAK HiBiT Ymin” value is given as 18.51. The DC50 under setting [1] stood at 46.7 nM.

As to `N#Cc1cnc(-c2cc(N3CCC3)nc3c2cnn3Cc2ccc3c(c2)CN(C2CCC(=O)NC2=O)C3=O)c(F)c1` (stereo not drawn) [Example 84, 6-[6-(azetidin-1-yl)-1-{[2-(2,6-dioxopiperidin-3-yl)-1-oxo-2,3-dihydro-1H-isoindol-5-yl]methyl}-1H-pyrazolo[3,4-b]pyridin-4-yl]-5-fluoropyridine-3-carbonitrile], the “FAK HiBiT Ymin” value is given as 19.19. Also, the DC50 under setting [1] was determined as 10.3 nM.

`Cc1ncccc1-c1cc(N2CC(F)C2)nc2c1cnn2Cc1ccc2c(c1)CN(C1CCC(=O)NC1=O)C2=O` (stereo not drawn) [Example 139, 3-(5-{[6-(3-fluoroazetidin-1-yl)-4-(2-methylpyridin-3-yl)-1H-pyrazolo[3,4-b]pyridin-1-yl]methyl}-1-oxo-2,3-dihydro-1H-isoindol-2-yl)piperidine-2,6-dione]: the “FAK HiBiT Ymin” value is given as 93.99. Moreover, the DC50 under setting [1] was at least 1000 nM.
